These are literature values, as cited in patent US5932245A, “Gelatin or collagen hydrolysate containing drug formulation that provides for immediate release of nanoparticle drug compounds” (priority 1991, dated 1999).

The conditions of series [1]: in vivo.
The conditions of series [2]: in contrast to indometacin.
The conditions of series [3]: aqueous medium.

Values after ≈ are worked out from the molar mass of the structure shown. Where two headings read alike, the source gives them in different places.

On to `COc1ccc2c(c1)c(CC(=O)OCC(=O)O)c(C)n2C(=O)c1ccc(Cl)cc1` [acemetacin, carboxymethyl(1-(4-chlorobenzoyl)-5-methoxy-2-methyl-3-indolyl)acetate], for which, in series [1], the metabolism entry is on record as “for the most part metabolized to indometacin”. For the same molecule, the ulcerogenic properties entry in series [2] was “weakly pronounced ulcerogenic properties”.
Take `COc1ccc(Cl)cc1C(=O)NCCc1ccc(S(=O)(=O)NC(=O)NC2CCCCC2)cc1` [glibenclamide, 1-{4-[2-(5-chloro-2-methoxybenzamido)ethyl]phenylsulfonyl}-3-cyclohexylurea]: the solubility (in general, how much of the substance goes into solution per volume) was 1 mg/L (≈ 2.02 µM) in series [3] (pH 1.3, room temperature); 3 mg/L (≈ 6.07 µM) in series [3] (pH 6.0, room temperature); “about 30 mg/l” in series [3] (pH 7.8, room temperature).
Turning to `COc1ccc2c(c1)c(CC(=O)O)c(C)n2C(=O)c1ccc(Cl)cc1` [indometacin, (1-(4-chlorobenzoyl)-5-methoxy-2-methyl-3-indolyl)acetic acid], the “water solubility (in words)” value is recorded as “virtually water-insoluble”.
